Source: PubChem BioAssay AID248 (DTP/NCI, 2004)
“And” between values parts separate entries of the source, which are not always exact repeats. Equal values may be shown once. Toxic doses and inconclusive results are not listed. Cut-off read from the data, not from the text of the source: active = T/C of 150% or more; inactive = T/C below 125%.

Test system: L1210 leukemia ip in BDF1 mice, survival T/C
Test: NCI In Vivo Anticancer Drug Screen. Data for tumor model L1210 Leukemia (intraperitoneal) in B6D2F1 (BDF1) mice
Conditions: endpoint: mean survival time, higher = longer survival
In short: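 Survival endpoint. Drug-treated group vs vehicle group, expressed as T divided by C. Tumor passaged by transplantation.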

[1] = dose: 100.0 mg/kg/injection, schedule: Q01DX001 (ip), vehicle: saline
[2] = dose: 200.0 mg/kg/injection, schedule: Q01DX001 (ip), vehicle: saline
[3] = dose: 400.0 mg/kg/injection, schedule: Q01DX001 (ip), vehicle: saline
[4] = dose: 100.0 mg/kg/injection, schedule: Q01DX001 (ip), vehicle: other
[5] = dose: 200.0 mg/kg/injection, schedule: Q01DX001 (ip), vehicle: other
[6] = dose: 400.0 mg/kg/injection, schedule: Q01DX001 (ip), vehicle: other
[7] = dose: 100.0 mg/kg/injection, schedule: Q01DX009 (ip), vehicle: Klucel (hydroxypropylcellulose) (HPC)
[8] = dose: 200.0 mg/kg/injection, schedule: Q01DX009 (ip), vehicle: Klucel (hydroxypropylcellulose) (HPC)
[9] = dose: 400.0 mg/kg/injection, schedule: Q01DX009 (ip), vehicle: Klucel (hydroxypropylcellulose) (HPC)
[10] = dose: 100.0 mg/kg/injection, schedule: Q04DX003 (ip), vehicle: Klucel (hydroxypropylcellulose) (HPC)
[11] = dose: 200.0 mg/kg/injection, schedule: Q04DX003 (ip), vehicle: Klucel (hydroxypropylcellulose) (HPC)
[12] = dose: 400.0 mg/kg/injection, schedule: Q04DX003 (ip), vehicle: Klucel (hydroxypropylcellulose) (HPC)
[13] = dose: 100.0 mg/kg/injection, schedule: Q04DX002 (ip), vehicle: Klucel (hydroxypropylcellulose) (HPC)
[14] = dose: 200.0 mg/kg/injection, schedule: Q04DX002 (ip), vehicle: Klucel (hydroxypropylcellulose) (HPC)
[15] = dose: 400.0 mg/kg/injection, schedule: Q04DX002 (ip), vehicle: Klucel (hydroxypropylcellulose) (HPC)
[16] = dose: 100.0 mg/kg/injection, schedule: Q04DX003 (ip), vehicle: saline with Tween-80
[17] = dose: 200.0 mg/kg/injection, schedule: Q04DX003 (ip), vehicle: saline with Tween-80
[18] = dose: 400.0 mg/kg/injection, schedule: Q04DX003 (ip), vehicle: saline with Tween-80
[19] = dose: 100.0 mg/kg/injection, schedule: Q01DX001 (ip), vehicle: carboxymethylcellulose (CMC)
[20] = dose: 200.0 mg/kg/injection, schedule: Q01DX001 (ip), vehicle: carboxymethylcellulose (CMC)
[21] = dose: 400.0 mg/kg/injection, schedule: Q01DX001 (ip), vehicle: carboxymethylcellulose (CMC)

Measured: T/C

CC(c1ccccc1)S(=O)(=O)c1ccccc1 (stereo not given)
inactive: [1] 102 % of control | dose: 100.0 mg/kg/injection, schedule: Q01DX009 (ip), vehicle: saline 95 % of control | dose: 100.0 mg/kg/injection, schedule: Q04DX003 (ip), vehicle: saline 97 % of control | [2] 101 % of control | dose: 200.0 mg/kg/injection, schedule: Q01DX009 (ip), vehicle: saline 101 % of control | dose: 200.0 mg/kg/injection, schedule: Q04DX003 (ip), vehicle: saline 95 % of control | [3] 95 % of control | dose: 400.0 mg/kg/injection, schedule: Q01DX009 (ip), vehicle: saline 97 % of control | dose: 400.0 mg/kg/injection, schedule: Q04DX003 (ip), vehicle: saline 95 % of control

C/C(=N/NC(N)=S)c1ccncc1
inactive: dose: 2.5 mg/kg/injection, schedule: Q01DX009 (ip), vehicle: Klucel (hydroxypropylcellulose) (HPC) 106 % of control | dose: 5.0 mg/kg/injection, schedule: Q01DX009 (ip), vehicle: Klucel (hydroxypropylcellulose) (HPC) 103 % of control | dose: 10.0 mg/kg/injection, schedule: Q01DX009 (ip), vehicle: Klucel (hydroxypropylcellulose) (HPC) 94 % of control

Cc1ccc(S(=O)(=O)OCCN(CCOS(=O)(=O)c2ccc(C)cc2)c2cc(OCc3ccccc3)cc(OCc3ccccc3)c2)cc1
inactive: dose: 25.0 mg/kg/injection, schedule: Q01DX009 (ip), vehicle: water 100 % of control | dose: 50.0 mg/kg/injection, schedule: Q01DX009 (ip), vehicle: water 121 % of control | dose: 100.0 mg/kg/injection, schedule: Q01DX009 (ip), vehicle: water 89 % of control | dose: 400.0 mg/kg/injection, schedule: Q01DX009 (ip), vehicle: water 95 % of control

COc1cc2c(cc1OC)C(=O)CC2
inactive: dose: 50.0 mg/kg/injection, schedule: Q01DX001 (ip), vehicle: other 91 % of control | [4] 98 % of control | [5] 98 % of control | [6] 96 % of control

O=[N+]([O-])c1cccc(C=Nc2cccc3ccccc23)c1
inactive: [7] 96 % of control | [8] 98 % of control | [9] 88 % of control

CC[CH](C)[Hg][c]1cccc2ccccc12 (stereo not given)
inactive: dose: 25.0 mg/kg/injection, schedule: Q01DX009 (ip), vehicle: Klucel (hydroxypropylcellulose) (HPC) 96 % of control | dose: 50.0 mg/kg/injection, schedule: Q01DX009 (ip), vehicle: Klucel (hydroxypropylcellulose) (HPC) 97 % of control | [7] 97 % of control and 100 % of control | [10] 100 % of control | [11] 97 % of control | [12] 96 % of control

COC1OC2COC(c3ccccc3)OC2C(OC(C)=O)C1OS(=O)(=O)c1ccc(C)cc1 (stereo not given)
inactive: [13] 109 % of control | [14] 88 % of control | [15] 109 % of control

ClC(Cl)=C(Cl)c1ccccc1
inactive: dose: 25.6 mg/kg/injection, schedule: Q04DX002 (ip), vehicle: saline with Tween-80 93 % of control | dose: 64.0 mg/kg/injection, schedule: Q04DX002 (ip), vehicle: saline with Tween-80 87 % of control | [16] 98 % of control | dose: 160.0 mg/kg/injection, schedule: Q04DX002 (ip), vehicle: saline with Tween-80 90 % of control | [17] 93 % of control | dose: 400.0 mg/kg/injection, schedule: Q04DX002 (ip), vehicle: saline with Tween-80 93 % of control | [18] 93 % of control

CC(c1ccccc1O)C1CCCCC1N=O (stereo not given)
inactive: [13] 105 % of control | [14] 102 % of control | [15] 98 % of control

c1ccc2c3c(cc(C4CCCC4)c2c1)CCCC3
inactive: [19] 88 % of control | [20] 91 % of control

O=C(CF)N(O)c1ccc(/C=C/c2ccccc2)cc1
inactive: [19] 101 % of control | [20] 113 % of control

COc1ccc(OC)c(/C=C/C(=O)c2ccc(Cl)cc2)c1
inactive: [10] 94 % of control | [11] 94 % of control | [12] 97 % of control

Cc1ccc(C2(C#N)CCCCC2)cc1
inactive: dose: 100.0 mg/kg/injection, schedule: Q01DX009 (ip), vehicle: saline with Tween-80 96 % of control | [16] 108 % of control | dose: 200.0 mg/kg/injection, schedule: Q01DX009 (ip), vehicle: saline with Tween-80 110 % of control | [17] 98 % of control | dose: 400.0 mg/kg/injection, schedule: Q01DX009 (ip), vehicle: saline with Tween-80 110 % of control | [18] 101 % of control

COc1cc(-c2[o+]c3cc(O)cc(O)c3cc2OC2OC(CO)C(O)C(O)C2O)cc(OC)c1O (stereo not given)
inactive: [19] 92 % of control | dose: 100.0 mg/kg/injection, schedule: Q04DX003 (ip), vehicle: saline sonified 98 % of control | [20] 101 % of control | [21] 100 % of control

c1ccc(C2CC3c4ccccc4C2c2cccc[n+]23)nc1 (stereo not given)
inactive: dose: 100.0 mg/kg/injection, schedule: Q01DX001 (ip), vehicle: Klucel (hydroxypropylcellulose) (HPC) 101 % of control | dose: 200.0 mg/kg/injection, schedule: Q01DX001 (ip), vehicle: Klucel (hydroxypropylcellulose) (HPC) 107 % of control

C#CC(NCCC(C)CC(C)(C)C)C(C)C (stereo not given)
inactive: [16] 103 % of control | [17] 90 % of control

NC(=O)c1cc([N+](=O)[O-])ccc1Cl
inactive: [16] 97 % of control | [17] 97 % of control | [18] 101 % of control

O=C1CC2=CCCCc3cccc1c32
inactive: [19] 93 % of control | [20] 93 % of control | [21] 93 % of control

Cc1nccn1-c1ccc(N=Cc2ccc(N(CCCl)CCCl)cc2)cc1
inactive: dose: 43.8 mg/kg/injection, schedule: Q04DX002 (ip), vehicle: Klucel (hydroxypropylcellulose) (HPC) 106 % of control | dose: 87.5 mg/kg/injection, schedule: Q04DX002 (ip), vehicle: Klucel (hydroxypropylcellulose) (HPC) 106 % of control | dose: 175.0 mg/kg/injection, schedule: Q04DX002 (ip), vehicle: Klucel (hydroxypropylcellulose) (HPC) 109 % of control

NC(=S)N/N=C(/Cc1ccccc1)CC(O)(C(F)(F)F)C(F)(F)F
inactive: dose: 50.0 mg/kg/injection, schedule: Q01DX009 (ip), vehicle: gum acacia 92 % of control | dose: 100.0 mg/kg/injection, schedule: Q01DX009 (ip), vehicle: gum acacia 91 % of control | dose: 100.0 mg/kg/injection, schedule: Q04DX003 (ip), vehicle: gum acacia 94 % of control | dose: 200.0 mg/kg/injection, schedule: Q04DX003 (ip), vehicle: gum acacia 105 % of control

COC1(OC)C2(Cl)CCC1(Cl)C(Cl)=C2Cl
inactive: [4] 98 % of control | dose: 100.0 mg/kg/injection, schedule: Q01DX001 (ip), vehicle: saline with Tween-80 100 % of control | [7] 100 % of control | [10] 102 % of control | [5] 98 % of control | dose: 200.0 mg/kg/injection, schedule: Q01DX001 (ip), vehicle: saline with Tween-80 100 % of control | [8] 103 % of control | [11] 94 % of control | [6] 92 % of control | dose: 400.0 mg/kg/injection, schedule: Q01DX001 (ip), vehicle: saline with Tween-80 97 % of control | [9] 90 % of control | [12] 96 % of control

O=CNNCc1c[nH]c(=O)[nH]c1=O
inactive: dose: 50.0 mg/kg/injection, schedule: Q01DX001 (ip), vehicle: saline 96 % of control | [1] 96 % of control | [2] 96 % of control | [3] 98 % of control

CCCCCCCCCCCCCC(=O)N(CCC)CCC
inactive: [19] 96 % of control | dose: 100.0 mg/kg/injection, schedule: Q01DX009 (ip), vehicle: carboxymethylcellulose (CMC) 94 % of control and 110 % of control | dose: 100.0 mg/kg/injection, schedule: Q04DX003 (ip), vehicle: carboxymethylcellulose (CMC) 95 % of control | [20] 93 % of control | dose: 200.0 mg/kg/injection, schedule: Q01DX009 (ip), vehicle: carboxymethylcellulose (CMC) 98 % of control and 103 % of control | dose: 200.0 mg/kg/injection, schedule: Q04DX003 (ip), vehicle: carboxymethylcellulose (CMC) 95 % of control | [21] 91 % of control | dose: 400.0 mg/kg/injection, schedule: Q04DX003 (ip), vehicle: carboxymethylcellulose (CMC) 93 % of control
